Laboratory results taken from publication doi:10.1101/2021.06.16.448769v1 (bioRxiv, 2021).
Like-named read-outs stand apart in the source and are kept apart here. Bridge positions count the residues as written; N and C are the ends. Square brackets hold non-standard residues; d marks the D form. Ends that are not written are not given here. Peptide text beside a SMILES is read from it. * marks the point of attachment. Cam = NC(=O)C*

Columns and labels:
[1] = target: human C5 (Homo sapiens, UniProt P01031); experiment: SPR multi-cycle kinetics, binding to human C5; conditions: for fold change in KD relative to parent: relative to the unmodified parent knob domain, Figure 5H
Sequence of human C5 (P01031 19-673 limits assumed): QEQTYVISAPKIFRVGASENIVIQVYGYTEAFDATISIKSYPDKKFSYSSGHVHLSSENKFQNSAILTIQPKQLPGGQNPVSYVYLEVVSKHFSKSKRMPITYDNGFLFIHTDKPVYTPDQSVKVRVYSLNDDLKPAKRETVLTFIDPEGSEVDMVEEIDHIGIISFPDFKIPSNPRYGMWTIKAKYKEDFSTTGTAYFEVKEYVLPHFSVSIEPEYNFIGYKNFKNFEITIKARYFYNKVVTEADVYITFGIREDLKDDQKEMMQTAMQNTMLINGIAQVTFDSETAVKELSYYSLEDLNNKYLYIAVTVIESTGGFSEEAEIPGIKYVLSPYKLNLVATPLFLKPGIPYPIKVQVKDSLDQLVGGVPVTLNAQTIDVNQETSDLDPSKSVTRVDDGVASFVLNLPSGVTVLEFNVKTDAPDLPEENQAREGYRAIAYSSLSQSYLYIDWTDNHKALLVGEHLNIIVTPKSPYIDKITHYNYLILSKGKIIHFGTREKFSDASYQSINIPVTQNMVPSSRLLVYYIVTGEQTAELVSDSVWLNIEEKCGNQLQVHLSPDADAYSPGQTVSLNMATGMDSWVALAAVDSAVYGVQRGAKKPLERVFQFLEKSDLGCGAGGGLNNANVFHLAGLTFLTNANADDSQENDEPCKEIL
Sequence of human C5 (P01031 678-1676 limits assumed): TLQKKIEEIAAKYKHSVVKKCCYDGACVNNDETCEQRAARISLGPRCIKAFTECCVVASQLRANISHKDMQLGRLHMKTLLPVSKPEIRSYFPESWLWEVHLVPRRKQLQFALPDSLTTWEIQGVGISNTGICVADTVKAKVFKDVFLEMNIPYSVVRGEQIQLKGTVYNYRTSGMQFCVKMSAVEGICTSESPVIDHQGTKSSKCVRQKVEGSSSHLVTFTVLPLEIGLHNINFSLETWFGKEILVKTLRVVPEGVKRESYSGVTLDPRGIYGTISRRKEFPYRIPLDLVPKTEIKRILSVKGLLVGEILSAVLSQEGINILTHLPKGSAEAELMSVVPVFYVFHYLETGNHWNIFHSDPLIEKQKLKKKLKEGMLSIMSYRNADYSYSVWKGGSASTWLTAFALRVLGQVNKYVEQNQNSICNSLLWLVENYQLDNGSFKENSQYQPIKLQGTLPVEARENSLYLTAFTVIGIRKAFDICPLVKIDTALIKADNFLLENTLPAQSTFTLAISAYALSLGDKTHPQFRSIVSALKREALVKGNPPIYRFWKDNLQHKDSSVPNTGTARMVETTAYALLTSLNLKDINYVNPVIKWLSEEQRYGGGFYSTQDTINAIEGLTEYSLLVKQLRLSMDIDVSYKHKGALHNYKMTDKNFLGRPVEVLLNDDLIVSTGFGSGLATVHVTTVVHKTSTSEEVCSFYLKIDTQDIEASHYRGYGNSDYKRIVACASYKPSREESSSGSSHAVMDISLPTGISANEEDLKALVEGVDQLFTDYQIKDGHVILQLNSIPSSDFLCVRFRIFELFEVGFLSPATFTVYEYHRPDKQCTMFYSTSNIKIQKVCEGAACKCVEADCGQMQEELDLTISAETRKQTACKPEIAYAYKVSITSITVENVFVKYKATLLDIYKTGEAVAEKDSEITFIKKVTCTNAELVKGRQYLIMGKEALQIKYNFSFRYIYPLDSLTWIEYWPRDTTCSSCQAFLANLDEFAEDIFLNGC

[2] = system: C5 activation (C5b-6), alternative pathway; experiment: Alternative pathway; type: biochemical
[3] = KD, peptide after reduction and capping of cysteines with iodoacetamide (IAM)
[4] = KD, reduced and IAM-capped knob domains, S4
[5] = reduced and IAM-capped knob domains, S4

Compound: CC[C@H](C)[C@H](NC(=O)[C@H](C)NC(=O)[C@@H](NC(=O)CNC(=O)[C@H](CSCC(N)=O)NC(=O)[C@H](CCC(=O)O)NC(=O)[C@H](CO)NC(=O)[C@H](Cc1c[nH]c2ccccc12)NC(=O)CNC(=O)[C@H](CCC(=O)O)NC(=O)[C@@H]1CCCN1C(=O)[C@H](CSCC(N)=O)NC(=O)[C@@H](N)[C@@H](C)O)C(C)C)C(=O)N[C@@H](Cc1ccc(O)cc1)C(=O)NCC(=O)N[C@@H](Cc1ccc(O)cc1)C(=O)N[C@@H](CCC(=O)O)C(=O)N[C@@H](CSCC(N)=O)C(=O)NCC(=O)N[C@@H](CCCNC(=N)N)C(=O)N[C@@H](Cc1c[nH]c2ccccc12)C(=O)NCC(=O)N[C@@H](CSCC(N)=O)C(=O)NCC(=O)N[C@@H](Cc1c[nH]cn1)C(=O)N[C@@H](Cc1ccccc1)C(=O)N[C@@H](CC(C)C)C(=O)N[C@@H](CC(N)=O)C(=O)N[C@@H](CO)C(=O)NCC(=O)N1CCC[C@H]1C(=O)N[C@@H](CC(N)=O)C(=O)N[C@H](C(=O)N[C@@H](CO)C(=O)N1CCC[C@H]1C(=O)N[C@@H](Cc1ccc(O)cc1)C(=O)N[C@H](C(=O)N[C@@H](CO)C(=O)N[C@H](C(=O)O)[C@@H](C)O)C(C)C)[C@@H](C)CC [K92 chemFE reduced and capped] (H-TC(Cam)PEGWSEC(Cam)GVAIYGYEC(Cam)GRWGC(Cam)GHFLNSGPNISPYVST-OH; N-terminus assumed)
- Kd [1, 3]: 2000 nM
- Kd [1, 4]: 2350 nM
- koff [1, 5]: 0.000172 s⁻¹
- kon [1, 5]: 72.9 M⁻¹ s⁻¹

Compound: CC[C@H](C)[C@@H]1NC(=O)[C@H](CCCCNC(C)=O)NC(=O)[C@H](C(C)C)NC(=O)CNC(=O)[C@@H]2CSSC[C@@H](C(=O)NCC(=O)N[C@@H](Cc3c[nH]cn3)C(=O)N[C@@H](Cc3ccccc3)C(=O)N[C@@H](CC(C)C)C(=O)N[C@@H](CC(N)=O)C(=O)N[C@@H](CO)C(=O)NCC(=O)N3CCC[C@H]3C(=O)N[C@@H](CC(N)=O)C(=O)N[C@H](C(=O)N[C@@H](CO)C(=O)N3CCC[C@H]3C(=O)N[C@@H](Cc3ccc(O)cc3)C(=O)N[C@H](C(=O)N[C@@H](CO)C(=O)N[C@H](C(=O)O)[C@@H](C)O)C(C)C)[C@@H](C)CC)NC(=O)CNC(=O)[C@H](Cc3c[nH]c4ccccc34)NC(=O)[C@H](CCCNC(=N)N)NC(=O)CNC(=O)[C@H](CSSC[C@H](NC(=O)[C@@H](N)[C@@H](C)O)C(=O)N3CCC[C@H]3C(=O)N[C@@H](CCC(=O)O)C(=O)NCC(=O)N[C@@H](Cc3c[nH]c4ccccc34)C(=O)N[C@@H](CO)C(=O)N[C@@H](CCC(=O)O)C(=O)N2)NC(=O)[C@H](CCC(=O)O)NC(=O)[C@H](Cc2ccc(O)cc2)NC(=O)CNC(=O)[C@H](Cc2ccc(O)cc2)NC1=O [K92chemFE A12K(Ac)] (H-TCPEGWSECGVK(Ac)IYGYECGRWGCGHFLNSGPNISPYVST-OH; disulfide 2-18, 9-23; N-terminus and C-terminus assumed)
- effect in AP ELISA (in words) [2]: two-fold increase in efficacy
- fold change in KD relative to parent [1]: 130.2

Compound: CC[C@H](C)[C@@H]1NC(=O)[C@H](CC(N)=O)NC(=O)[C@H](C(C)C)NC(=O)CNC(=O)[C@@H]2CSSC[C@@H](C(=O)NCC(=O)N[C@@H](Cc3c[nH]cn3)C(=O)N[C@@H](Cc3ccccc3)C(=O)N[C@@H](CC(C)C)C(=O)N[C@@H](CC(N)=O)C(=O)N[C@@H](CO)C(=O)NCC(=O)N3CCC[C@H]3C(=O)N[C@@H](CC(N)=O)C(=O)N[C@H](C(=O)N[C@@H](CO)C(=O)N3CCC[C@H]3C(=O)N[C@@H](Cc3ccc(O)cc3)C(=O)N[C@H](C(=O)N[C@@H](CO)C(=O)N[C@H](C(=O)O)[C@@H](C)O)C(C)C)[C@@H](C)CC)NC(=O)CNC(=O)[C@H](Cc3c[nH]c4ccccc34)NC(=O)[C@H](CCCNC(=N)N)NC(=O)CNC(=O)[C@H](CSSC[C@H](NC(=O)[C@@H](N)[C@@H](C)O)C(=O)N3CCC[C@H]3C(=O)N[C@@H](CCC(=O)O)C(=O)NCC(=O)N[C@@H](Cc3c[nH]c4ccccc34)C(=O)N[C@@H](CO)C(=O)N[C@@H](CCC(=O)O)C(=O)N2)NC(=O)[C@H](CCC(=O)O)NC(=O)[C@H](Cc2ccc(O)cc2)NC(=O)CNC(=O)[C@H](Cc2ccc(O)cc2)NC1=O [K92chemFE A12N] (H-TCPEGWSECGVNIYGYECGRWGCGHFLNSGPNISPYVST-OH; disulfide 2-18, 9-23; N-terminus and C-terminus assumed)
- fold change in KD relative to parent [1]: 4.6

Compound: CC[C@H](C)[C@H](NC(=O)[C@H](CC(N)=O)NC(=O)[C@@H]1CCCN1C(=O)CNC(=O)[C@H](CO)NC(=O)[C@H](CC(N)=O)NC(=O)[C@H](CC(C)C)NC(=O)[C@H](Cc1ccccc1)NC(=O)[C@H](Cc1c[nH]cn1)NC(=O)CNC(=O)[C@@H]1CSSC[C@@H]2NC(=O)[C@H](CCC(=O)O)NC(=O)[C@H](CO)NC(=O)[C@H](Cc3c[nH]c4ccccc34)NC(=O)CNC(=O)[C@H](CCC(=O)O)NC(=O)[C@@H]3CCCN3C(=O)[C@@H](NC(=O)[C@@H](N)[C@@H](C)O)CSSC[C@H](NC(=O)[C@H](CCC(=O)O)NC(=O)[C@H](Cc3ccc(O)cc3)NC(=O)CNC(=O)[C@H](Cc3ccc(O)cc3)NC(=O)[C@H]([C@@H](C)CC)NC(=O)[C@@H](Cc3c[nH]c4ccccc34)NC(=O)[C@H](C(C)C)NC(=O)CNC2=O)C(=O)NCC(=O)N[C@@H](CCCNC(=N)N)C(=O)N[C@@H](Cc2c[nH]c3ccccc23)C(=O)NCC(=O)N1)C(=O)N[C@@H](CO)C(=O)N1CCC[C@H]1C(=O)N[C@@H](Cc1ccc(O)cc1)C(=O)N[C@H](C(=O)N[C@@H](CO)C(=O)N[C@H](C(=O)O)[C@@H](C)O)C(C)C [K92chemFE A12d-W] (H-TCPEGWSECGV[dW]IYGYECGRWGCGHFLNSGPNISPYVST-OH; disulfide 2-18, 9-23; N-terminus and C-terminus assumed)
- fold change in KD relative to parent [1]: 165.6

Compound: CC[C@H](C)[C@@H]1NC(=O)[C@H](C)NC(=O)[C@H](C(C)C)NC(=O)CNC(=O)[C@@H]2CSSC[C@@H]3NC(=O)CNC(=O)[C@H](Cc4c[nH]c5ccccc45)NC(=O)[C@H](CCCNC(=N)N)NC(=O)CNC(=O)[C@H](CSSC[C@H](NC(=O)[C@H]([C@@H](C)O)NC(=O)[C@H](Cc4ccc(O)cc4)NC(=O)[C@@H]4CCCN4C(=O)[C@H](CO)NC(=O)[C@H]([C@@H](C)CC)NC(=O)[C@H](CC(N)=O)NC(=O)[C@@H]4CCCN4C(=O)CNC(=O)[C@H](CO)NC(=O)[C@H](CC(N)=O)NC(=O)[C@H](CC(C)C)NC(=O)[C@H](Cc4ccccc4)NC(=O)[C@H](Cc4c[nH]cn4)NC(=O)CNC3=O)C(=O)N3CCC[C@H]3C(=O)N[C@@H](CCC(=O)O)C(=O)NCC(=O)N[C@@H](Cc3c[nH]c4ccccc34)C(=O)N[C@@H](CO)C(=O)N[C@@H](CCC(=O)O)C(=O)N2)NC(=O)[C@H](CCC(=O)O)NC(=O)[C@H](Cc2ccc(O)cc2)NC(=O)CNC(=O)[C@H](Cc2ccc(O)cc2)NC1=O [K92chemFE^cyclic] (cyclo(AIYGYECGRWGCGHFLNSGPNISPYTCPEGWSECGV); disulfide 7-27, 12-34)
- fold change in KD relative to parent [1]: 39.7

Compound: CSCC[C@@H]1NC(=O)[C@@H]2CCCN2C(=O)[C@@H]2CSSC[C@H](NC(=O)[C@H](CCCNC(=N)N)NC(=O)CNC(=O)[C@H](C(C)C)NC1=O)C(=O)N[C@@H](CC(C)C)C(=O)N[C@@H](C)C(=O)N1CCC[C@H]1C(=O)N[C@@H](CCCNC(=N)N)C(=O)N[C@@H](CC(N)=O)C(=O)N[C@@H]([C@@H](C)O)C(=O)N[C@@H](CO)C(=O)N[C@H]1CSSC[C@H](NC(=O)[C@H](Cc3ccccc3)NC(=O)[C@H](CC(=O)O)NC(=O)[C@H](CC(=O)O)NC(=O)[C@H](Cc3c[nH]c4ccccc34)NC(=O)[C@H](CO)NC(=O)[C@H](CCCNC(=N)N)NC(=O)[C@H](Cc3ccc(O)cc3)NC(=O)[C@H](CO)NC(=O)[C@H](Cc3ccccc3)NC(=O)CNC(=O)[C@H](CC(=O)O)NC(=O)[C@@H]3CCCN3C1=O)C(=O)N2 [K149chemFE^cyclic] (cyclo(APRNTSCPDGFSYRSWDDFCCPMVGRCL); disulfide 7-20, 21-27 (inferred); ring closure inferred)
- fold change in KD relative to parent [1]: 0.2

Compound: CSCC[C@@H]1NC(=O)[C@@H]2CCCN2C(=O)[C@@H](NC(=O)[C@@H]2CSSC[C@H](NC(=O)[C@@H](N)CO)C(=O)N3CCC[C@H]3C(=O)N[C@@H](CC(=O)O)C(=O)NCC(=O)N[C@@H](Cc3ccccc3)C(=O)N[C@@H](CO)C(=O)N[C@@H](Cc3ccc(O)cc3)C(=O)N[C@@H](CCCNC(=N)N)C(=O)N[C@@H](CO)C(=O)N[C@@H](Cc3c[nH]c4ccccc34)C(=O)N[C@@H](CC(=O)O)C(=O)N[C@@H](CC(=O)O)C(=O)N[C@@H](Cc3ccccc3)C(=O)N2)CSSC[C@@H](C(=O)N[C@@H](CC(C)C)C(=O)N[C@@H](C)C(=O)N2CCC[C@H]2C(=O)N[C@@H](CCCNC(=N)N)C(=O)N[C@@H](CC(N)=O)C(=O)O)NC(=O)[C@H](CCCNC(=N)N)NC(=O)CNC(=O)[C@H](C(C)C)NC1=O [K149chemSD-A] (H-SCPDGFSYRSWDDFCCPMVGRCLAPRN-OH; disulfide 2-15, 16-22; N-terminus assumed)
- Kd ([1]; read-out: mean KD, SPR multi-cycle kinetics, mean of n=3): 7.3 nM

Compound: GC(Cam)PPGYKSGVDC(Cam)SPGSEC(Cam)KWGC(Cam)YAVDGRRYGGYGADSGVGS-OH [K57chemFE reduced and capped]
- Kd [1, 3]: 76 nM
- Kd [1, 4]: 75.6 nM
- koff [1, 5]: 0.000358 s⁻¹
- kon [1, 5]: 4740 M⁻¹ s⁻¹

Compound: cyclo(ADSGVGSTGCPPGYKSGVDCSPGSECKWGCYAVDGRRYGGYG) (disulfide 10-26, 20-30 (inferred); ring closure inferred) [K57chemFE^cyclic]
- fold change in KD relative to parent [1]: 0.8
